Marks after values point to notes of the source that are not given here.
Columns and labels:
[1] = target: T1, BSA (Bos taurus, UniProt P02769); assay: Formation and degradation of albumin-bound DNIC in cell culturing media with FBS (EPR); type: in vitro ADME, bovine
T1 construct: 2 mL of αMEM with the presence of 20% FBS; from tissue; host or cells: fetal bovine serum (FBS) in αMEM / MEM / HSFM culture media
Description: 50 μM of DNIC–COOH was prepared via addition of 1 μL of 100 mM stock solution of DNIC–COOH in DMSO to 2 mL of αMEM with the presence of 20% FBS. After this solution was incubated at 37 °C for 0, 0.5, 1, 2, 3, 4, 8, and 24 h, respectively, EPR spectra of 100 μL aliquots of this solution were measured. Moreover, double integration of the EPR signal was executed to obtain the integrated EPR signal intensity under each condition, which was further utilized to characterize the time-dependent formation and degradation of BSA-bound DNIC. EPR investigations on the formation and degradation of protein-bound DNICs upon incubation of (1) 50 μM DNIC–COOMe in αMEM with the presence of 20% FBS, (2) 50 μM DNIC–COOH (or DNIC–COOMe) in MEM with the presence of 5% FBS, and (3) 50 μM DNIC–COOH (or DNIC–COOMe) in HSFM with the presence of 2% FBS were performed in a similar manner. In addition, EPR spectra for 50 μM of DNIC–COOH (or 50 μM of DNIC–COOMe) in αMEM, MEM, and HSFM, respectively, were also measured.

[2] = tested on: deoxyMb; assay: Direct transfer of NO to deoxyMb yielding MbNO (UV–vis); type: biochemical; settings: deoxyMb 5 μM/Cys 200 μM, generated [(NO)2Fe(SR)(SCys)]n−, phosphate buffer (pH 7.4), anaerobic
Description: After addition of 30 μL of 500 μM stock solution of DNIC–COOH (in DMSO) to a 4 mL quartz cuvette containing 5 μM metMb and 200 μM Cys in 3 mL of 25 mM PBS (pH 7.4), UV–vis spectra for this mixture solution were measured every 30 min. Transformation of […] into MbNO was achieved after reaction for 4 h based on the complete shift of UV–vis absorption bands from (410, 502, and 629) nm to (419, 548, and 578) nm.
Reactions of (a) 5 μM of DNIC–COOMe with 5 μM of metMb in the presence of 200 μM of Cys, (b) 5 μM of DNIC–COOH/DNIC–COOMe with 5 μM of deoxyMb in the presence of 200 μM of Cys, and (c) 5 μM of DNIC–COOH/DNIC–COOMe with 5 μM of metMb in the presence of 50 mg/mL BSA were performed under a similar manner.

[3] = tested on: MSC/N2a/HCEC; assay: Whole-cell EPR, results stated jointly for MSC/N2a/HCEC; type: cell-based; settings: for tmax for cellular uptake: stated jointly for MSC/N2a/HCEC
Description: Cellular uptake of DNIC–COOH and intracellular formation/decomposition of mononuclear DNICs in MSC/N2a/HCEC cells were investigated using EPR spectroscopy. Briefly, cells were seeded into two (or one) 100 mm dish(es) at a density of 2 × 10^6 cells/dish and incubated at 37 °C overnight. On the next day, cells were treated with 100 μM of DNIC–COOH (or 100 μM of DNIC–COOH to N2a and 75 μM of DNIC–COOH to HCEC) and incubated for 0, 0.5, 1, 2, 3, 4, 8, and 24 h, respectively. After removal of the supernatant solution, cells were washed with DPBS before addition of 1 mL of trypsin (0.05%)/EDTA (0.53 mM) and incubation for 5 min at 37 °C. After the obtained cell suspension solutions from two 100 mm dishes were combined and centrifuged at 100g for 5 min, the supernatant was removed before addition of 100 μL of αMEM to DNIC-treated MSC (or MEM to DNIC-treated N2a and HSFM to DNIC-treated HCEC). This solution was then transferred into EPR quartz tube and frozen in N2(l) before the EPR measurements. For each measured EPR spectrum, double integration was executed to obtain the integrated EPR intensity under each condition. Moreover, time-dependent decay of integrated EPR signal intensity after treatment of DNIC–COOH was fit to pseudo-first-order kinetics in order to determine the intracellular half-life for EPR-active mononuclear DNIC. Three independent experiments were executed to measure the average half-life for intracellular decomposition of EPR-active mononuclear DNIC after treatment with DNIC–COOH at 37 °C. On the other hand, at the time point with maximum integrated EPR signal intensity, spin quantitation of intracellular EPR-active DNICs was performed using mononuclear DNIC [PPN][(NO)2Fe(S5)] as a standard according to the methodology used in the previous work.[50] Cellular uptake of DNIC–COOMe (2.5 μM to MSC, 10 μM to N2a, or 1 μM to HCEC) and intracellular formation/decomposition of EPR-active mononuclear DNICs were investigated using EPR spectroscopy in a similar manner. […]

[4] = tested on: MSC/N2a/HCEC; assay: Intracellular release of NO, stated jointly for MSC/N2a/HCEC; type: cell-based
Description: Intracellular release of NO by DNIC–COOH was validated using the fluorescence probe 4-amino-5-methylamino-2′,7′-difluorofluorescein diacetate (DAF-FM) in combination with fluorescence analysis techniques. Briefly, the MSC cells (or N2a and HCEC cells) were seeded onto a 96-well black plate at a density of 6 × 10^3 cells/well (or 1 × 10^4 cells/well for N2a and 8 × 10^3 cells/well for HCEC cells) and incubated at 37 °C overnight. On the next day, the MSC cells were first treated with 10 μM of DAF-FM (or 5 μM for N2a and HCEC cells) and incubated at 37 °C for 0.5 h. […] Fluorescence intensity of the cells was then recorded using a microplate reader (SpectraMax iD3, Molecular Devices, San Jose, CA) with an excitation wavelength at 485 nm and an emission wavelength at 525 nm. Three independent experiments were executed to measure the time-dependent change of average fluorescence intensity. Time-dependent change of average fluorescence intensity for the MSC/N2a/HCEC cells with sequential treatment of DAF-FM (10 μM for MSC cells, 5 μM for N2a cells, 5 μM for HCEC cells; 0.5 h) and DNIC–COOMe (2.5 μM for MSC cells, 10 μM for N2a cells, 1 μM for HCEC cells) was determined in a similar manner.

T1 sequence (P02769 25-607): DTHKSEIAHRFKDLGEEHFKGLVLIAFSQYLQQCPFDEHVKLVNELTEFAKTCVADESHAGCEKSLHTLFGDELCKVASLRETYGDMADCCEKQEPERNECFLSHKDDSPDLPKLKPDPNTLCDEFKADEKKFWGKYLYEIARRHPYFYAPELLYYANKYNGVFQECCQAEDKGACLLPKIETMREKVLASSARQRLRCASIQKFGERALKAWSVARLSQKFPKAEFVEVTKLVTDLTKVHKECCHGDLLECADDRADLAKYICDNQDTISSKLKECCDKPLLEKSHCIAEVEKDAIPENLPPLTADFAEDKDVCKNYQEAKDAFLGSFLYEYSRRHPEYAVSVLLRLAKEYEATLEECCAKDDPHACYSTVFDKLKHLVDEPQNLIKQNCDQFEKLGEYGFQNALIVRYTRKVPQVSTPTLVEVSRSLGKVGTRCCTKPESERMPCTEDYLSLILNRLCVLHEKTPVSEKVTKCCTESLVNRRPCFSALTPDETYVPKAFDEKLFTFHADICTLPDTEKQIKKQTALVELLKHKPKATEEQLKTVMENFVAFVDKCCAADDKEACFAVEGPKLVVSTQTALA

Structure (SMILES) | binding to BSA yielding albumin-bound DNIC [1] | reaction time for complete conversion of deoxyMb into MbNO [2] | reaction time for complete conversion of deoxyMb into MbNO ([2]; listed as DNIC-COOMe) [h] | tmax for intracellular assembly of mononuclear DNICs ([3]; MSC/N2a/HCEC, hypoxia) [h] | tmax for cellular uptake [3] [h] | tmax for intracellular release of free NO [4] [h] | reaction time for complete conversion of deoxyMb into MbNO ([2]; listed as DNIC-COOH) [h]
COC(=O)CC[SH]1[Fe]([N]=O)([N]=O)[SH](CCC(=O)OC)[Fe]1([N]=O)[N]=O (centres unmarked) [DNIC–COOMe, [(NO)2Fe(μ-SCH2CH2COOCH3)2Fe(NO)2]] | rapid binding | 2.0 ^f h | 2.0 | 0.5 | 0.5 | 1 to 2 | –
O=[N][Fe]1([N]=O)[SH](CCC(=O)O)[Fe]([N]=O)([N]=O)[SH]1CCC(=O)O (centres unmarked) [DNIC–COOH, [(NO)2Fe(μ-SCH2CH2COOH)2Fe(NO)2]] | slow binding | 3.5 ^f h | – | – | 2 to 8 | 4 to 6 | 3.5
